# Where two headings read alike, the source gives them in different places.
# Key:
# PC3 = PC3 proliferation; format: cell-based; details: Homo sapiens, PC-3; PC3 cell line (compounds before 438)
# T47D = T47D proliferation; format: cell-based; details: Homo sapiens; T47D cell line
# PI3K γ = PI3K γ (Homo sapiens, UniProt P48736); experiment: PI 3-Kinase (human) HTRF assay, p110γ
# Protocol: (§1) Briefly, the assay is a time resolved FRET assay that indirectly measures PIP3 product formed by the activity of a PI3-K. The kinase reaction is performed in a microtiter plate (e.g., a 384 well microtiter plate). The total reaction volume is approximately 20 ul per well. In the first step, each well receives 2 ul of test compound in 20% dimethylsulphoxide resulting in a 2% DMSO final concentration. […] The plate is sealed and incubated for 15 minutes at room temperature. […] The plate is sealed and incubated for 1 hour at room temperature. The reaction is stopped by adding 5 ul of Stop Solution per well and then 5 ul of Detection Mix is added per well. The plate is sealed, incubated for 1 hour at room temperature, and then read on an appropriate plate reader. Data is analyzed and IC50s are generated using GraphPad Prism 5.
# PI3K α = PI3K α (Homo sapiens, UniProt P42336); experiment: PI 3-Kinase (human) HTRF assay, p110α/p85α
# Protocol: (§2) An exemplary system is PI 3-Kinase (human) HTRF™ Assay from Upstate. […] Briefly, the assay is a time resolved FRET assay that indirectly measures PIP3 product formed by the activity of a PI3-K. The kinase reaction is performed in a microtiter plate (e.g., a 384 well microtiter plate). The total reaction volume is approximately 20 ul per well. In the first step, each well receives 2 ul of test compound in 20% dimethylsulphoxide resulting in a 2% DMSO final concentration. […] The plate is sealed and incubated for 15 minutes at room temperature. […] The plate is sealed and incubated for 1 hour at room temperature. The reaction is stopped by adding 5 ul of Stop Solution per well and then 5 ul of Detection Mix is added per well. The plate is sealed, incubated for 1 hour at room temperature, and then read on an appropriate plate reader. Data is analyzed and IC50s are generated using GraphPad Prism 5.
# PI3K β = PI3K β (Homo sapiens, UniProt P42338); experiment: PI 3-Kinase (human) HTRF assay, p110β/p85α
# Sequence of PI3K β (P42338 whole entry): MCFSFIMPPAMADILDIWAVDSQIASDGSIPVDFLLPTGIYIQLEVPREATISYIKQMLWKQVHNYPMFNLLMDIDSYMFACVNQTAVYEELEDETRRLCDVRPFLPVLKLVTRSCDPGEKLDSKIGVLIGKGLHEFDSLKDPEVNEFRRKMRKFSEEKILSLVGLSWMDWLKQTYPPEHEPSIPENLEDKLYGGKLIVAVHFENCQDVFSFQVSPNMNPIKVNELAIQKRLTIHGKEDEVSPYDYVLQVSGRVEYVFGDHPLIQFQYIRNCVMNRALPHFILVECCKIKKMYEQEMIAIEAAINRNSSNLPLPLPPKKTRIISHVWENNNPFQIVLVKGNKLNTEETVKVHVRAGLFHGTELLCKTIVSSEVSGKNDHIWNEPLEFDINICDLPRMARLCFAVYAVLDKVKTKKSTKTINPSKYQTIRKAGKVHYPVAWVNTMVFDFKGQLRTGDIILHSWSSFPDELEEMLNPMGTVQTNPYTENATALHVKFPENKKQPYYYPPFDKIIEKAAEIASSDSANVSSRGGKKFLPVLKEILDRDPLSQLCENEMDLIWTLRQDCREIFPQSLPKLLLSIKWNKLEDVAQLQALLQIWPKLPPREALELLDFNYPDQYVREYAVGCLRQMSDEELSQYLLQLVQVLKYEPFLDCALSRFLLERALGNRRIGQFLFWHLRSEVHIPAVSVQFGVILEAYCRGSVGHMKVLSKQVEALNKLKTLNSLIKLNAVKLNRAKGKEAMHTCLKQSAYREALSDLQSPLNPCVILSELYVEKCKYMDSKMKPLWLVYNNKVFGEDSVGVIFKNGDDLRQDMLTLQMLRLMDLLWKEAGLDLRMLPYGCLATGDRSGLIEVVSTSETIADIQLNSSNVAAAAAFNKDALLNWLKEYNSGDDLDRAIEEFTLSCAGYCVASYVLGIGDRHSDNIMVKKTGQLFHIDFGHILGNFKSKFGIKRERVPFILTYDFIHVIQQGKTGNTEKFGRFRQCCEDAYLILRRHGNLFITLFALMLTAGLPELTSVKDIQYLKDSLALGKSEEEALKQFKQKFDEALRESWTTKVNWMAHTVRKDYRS
# Sequence of PI3K β (P27986 whole entry partner): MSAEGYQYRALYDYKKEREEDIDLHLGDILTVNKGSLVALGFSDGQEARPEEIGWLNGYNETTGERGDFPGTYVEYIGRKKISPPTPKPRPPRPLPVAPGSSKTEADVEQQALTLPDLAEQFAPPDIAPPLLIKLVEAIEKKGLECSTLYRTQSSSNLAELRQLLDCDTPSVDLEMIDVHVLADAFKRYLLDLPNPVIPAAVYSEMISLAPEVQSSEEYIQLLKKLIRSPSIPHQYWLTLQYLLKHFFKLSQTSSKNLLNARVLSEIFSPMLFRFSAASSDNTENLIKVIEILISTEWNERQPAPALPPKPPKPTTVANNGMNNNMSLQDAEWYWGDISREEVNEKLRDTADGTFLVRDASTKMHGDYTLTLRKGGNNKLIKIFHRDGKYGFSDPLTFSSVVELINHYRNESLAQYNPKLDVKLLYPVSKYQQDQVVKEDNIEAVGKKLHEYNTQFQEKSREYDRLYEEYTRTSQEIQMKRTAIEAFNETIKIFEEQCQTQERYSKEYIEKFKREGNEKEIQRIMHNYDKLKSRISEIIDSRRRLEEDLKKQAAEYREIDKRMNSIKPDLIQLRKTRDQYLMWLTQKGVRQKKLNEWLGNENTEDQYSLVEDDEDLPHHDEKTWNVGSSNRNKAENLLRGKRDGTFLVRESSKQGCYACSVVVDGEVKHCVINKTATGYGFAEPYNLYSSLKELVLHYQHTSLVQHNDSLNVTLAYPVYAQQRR
# Protocol: as §2
# PI3K δ = PI3K δ (Homo sapiens, UniProt O00329); experiment: PI 3-Kinase (human) HTRF assay, p110δ/p85α
# Sequence of PI3K δ (O00329 whole entry): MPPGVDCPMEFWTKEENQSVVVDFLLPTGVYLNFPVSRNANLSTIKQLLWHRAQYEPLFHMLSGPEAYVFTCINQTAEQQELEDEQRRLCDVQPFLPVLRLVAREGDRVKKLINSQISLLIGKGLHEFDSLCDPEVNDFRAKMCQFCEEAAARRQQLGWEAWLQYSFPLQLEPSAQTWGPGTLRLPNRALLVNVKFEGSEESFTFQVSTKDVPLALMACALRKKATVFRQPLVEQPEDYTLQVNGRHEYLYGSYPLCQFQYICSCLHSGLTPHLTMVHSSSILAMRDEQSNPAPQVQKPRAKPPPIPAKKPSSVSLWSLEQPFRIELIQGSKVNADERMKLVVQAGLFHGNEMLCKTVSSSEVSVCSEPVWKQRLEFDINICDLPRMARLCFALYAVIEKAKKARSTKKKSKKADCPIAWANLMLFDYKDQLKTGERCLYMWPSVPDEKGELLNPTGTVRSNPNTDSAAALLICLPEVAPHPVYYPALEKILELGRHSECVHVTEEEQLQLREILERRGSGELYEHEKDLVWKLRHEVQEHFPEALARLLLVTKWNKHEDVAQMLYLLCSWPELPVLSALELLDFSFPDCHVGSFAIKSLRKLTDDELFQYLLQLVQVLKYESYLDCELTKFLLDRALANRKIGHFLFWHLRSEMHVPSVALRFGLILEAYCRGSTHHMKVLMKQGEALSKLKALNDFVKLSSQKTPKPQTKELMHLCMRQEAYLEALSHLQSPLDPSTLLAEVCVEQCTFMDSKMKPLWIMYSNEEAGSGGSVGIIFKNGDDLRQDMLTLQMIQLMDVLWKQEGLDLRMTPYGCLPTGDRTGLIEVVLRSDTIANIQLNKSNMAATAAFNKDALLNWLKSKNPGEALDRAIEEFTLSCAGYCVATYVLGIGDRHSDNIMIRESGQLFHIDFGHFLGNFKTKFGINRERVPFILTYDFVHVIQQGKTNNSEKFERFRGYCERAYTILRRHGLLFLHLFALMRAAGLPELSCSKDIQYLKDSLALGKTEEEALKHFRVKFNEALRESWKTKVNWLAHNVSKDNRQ
# Sequence of PI3K δ (P27986 whole entry partner): as the sequence (P27986 whole entry partner) above
# Protocol: as §1
# mTOR = biological target: T1, mTOR (Homo sapiens, UniProt P42345); experiment: Inhibition assay of mTOR (radiometric or LanthaScreen TR-FRET); format: biochemical; details: read-out: mTORC IC50
# T1 construct: purchased Invitrogen
# Protocol: The compounds described herein can be tested against recombinant mTOR (Invitrogen) in an assay containing 50 mM HEPES, pH 7.5, 1 mM EGTA, 10 mM MgCl2, 2.5 mM, 0.01% Tween, 10 μM ATP (2.5 μCi of μ-32P-ATP), and 3 μg/mL BSA. Rat recombinant PHAS-1/4EBP1 (Calbiochem; 2 mg/mL) is used as a substrate. Reactions are terminated by spotting onto nitrocellulose, which is washed with 1M NaCl/1% phosphoric acid (approximately 6 times, 5-10 minutes each). Sheets are dried and the transferred radioactivity quantitated by phosphorimaging.
# For instance, one can use Invitrogen's LanthaScreen™ Kinase assay to test the inhibitors of mTOR disclosed herein. This assay is a time resolved FRET platform that measures the phosphorylation of GFP labeled 4EBP1 by mTOR kinase. The kinase reaction is performed in a white 384 well microtiter plate. The total reaction volume is 20 ul per well and the reaction buffer composition is 50 mM HEPES pH7.5, 0.01% Polysorbate 20, 1 mM EGTA, 10 mM MnCl2, and 2 mM DTT. In the first step, each well receives 2 ul of test compound in 20% dimethylsulphoxide resulting in a 2% DMSO final concentration. […] The plate is sealed and incubated for 1 hour at room temperature. […] The plate is sealed, incubated for 1 hour at room temperature, and then read on a plate reader set up for LanthaScreen™ TR-FRET. Data is analyzed and IC50s are generated using GraphPad Prism 5.
# MDA-MB-361 = MDA-MB-361 proliferation; format: cell-based; details: Homo sapiens
# B cell function = B cell function in vivo, antibody production after TNP-Ficoll immunization; details: mice immunized with TNP-Ficoll; 70 mg/kg GDC0941; 30, 60 or 120 mg/kg Compound A; 7 days; FIG. 8
# Protocol: Mice were immunized with TNP-Ficoll and treated with 1) vehicle; 2) 70 mg/kg GDC0941; 3) 30 mg/kg Compound A; 4) 60 mg/kg Compound A; or 5) 120 mg/kg Compound A for 7 days. Antibody production was measured as a percentage of control group that were treated with vehicle.
# [1] = system: MDA-MB-361 (PI3Kα/HER2 carcinoma) tumors; experiment: In vivo efficacy in xenogenic mouse model of breast cancer; parameters: species or system nude mice; details: 70 mg/kg Pan-PI3K inhibitor; 60 mg/kg compound A
# Protocol: Blood glucose was monitored periodically following administration of treatment.
# Treatment of tumors (MDA-MB-361) with compounds was discontinued on Day 30. Tumors were measured every 2-5 days.
# [2] = system: anti-TNP antibody production (B cell function); experiment: TNP-Ficoll T-cell independent B-cell activation assay; format: in vivo, mice; details: 70 mg/kg GDC0941; 30, 60 or 120 mg/kg Compound A; 7 days
# Protocol: To test the effects of the compounds of the present invention in suppressing T cell independent antibody production, the TNP-Ficoll B-cell activation assay is used as described herein. Compounds of the present invention are dissolved in an appropriate vehicle (e.g. 5% 1-methyl-2-pyrrolidinone, 85% polyethylene glycol 400, 10% Solutor). Compounds are administered orally approximately lhr before TNP-Ficoll treatment to 4-10 week old mice. To study the effects of the compounds on B-cell activation, one set of mice are grouped according to the following table:
# Four animals in group 1, and eight animals in groups 2 to 7 are euthanized in CO2 2 hours after the last compound administration on day 7. […]
# Serum samples are analyzed for anti-TNP antibody titers by ELISA as described herein. […] HRP substrate (200 μl ABTS solution+30% H2O2+10 ml citrate buffer) is added to each well at 100 μl/well, incubated 2-20 minutes in the dark and the amount of anti-TNP IgG3 is determined spectrophotometrically at 405 nm. Similarly, anti-TNP IgM and total anti-TNP Ab are determined using anti-mouse IgM-HRP and anti-mouse Ig-HRP respectively.
# Antibody production was measured using ELISA and plotted as a percentage of control group that were treated with vehicle.
# marginal zone B cells = experiment: Marginal zone B cells in mouse spleen (FACS); details: 70 mg/kg Pan-PI3K inhibitor; 60 mg/kg Compound A; spleens 2 hrs after last dose
# Protocol: The effect of the compounds on the localization/viability of marginal zone B cells in the spleen is also evaluated at the conclusion of treatment.
# Spleens were harvested 2 hrs after the last dose, processed and stained with appropriate antibodies (marginal zone B cell: B220+; CD23−; CD21hi) and analyzed for staining on GUAVA EasyCyte FACS machine using Guava Cytosoft 5.2 software.
# Sequence of PI3K γ (P48736 whole entry): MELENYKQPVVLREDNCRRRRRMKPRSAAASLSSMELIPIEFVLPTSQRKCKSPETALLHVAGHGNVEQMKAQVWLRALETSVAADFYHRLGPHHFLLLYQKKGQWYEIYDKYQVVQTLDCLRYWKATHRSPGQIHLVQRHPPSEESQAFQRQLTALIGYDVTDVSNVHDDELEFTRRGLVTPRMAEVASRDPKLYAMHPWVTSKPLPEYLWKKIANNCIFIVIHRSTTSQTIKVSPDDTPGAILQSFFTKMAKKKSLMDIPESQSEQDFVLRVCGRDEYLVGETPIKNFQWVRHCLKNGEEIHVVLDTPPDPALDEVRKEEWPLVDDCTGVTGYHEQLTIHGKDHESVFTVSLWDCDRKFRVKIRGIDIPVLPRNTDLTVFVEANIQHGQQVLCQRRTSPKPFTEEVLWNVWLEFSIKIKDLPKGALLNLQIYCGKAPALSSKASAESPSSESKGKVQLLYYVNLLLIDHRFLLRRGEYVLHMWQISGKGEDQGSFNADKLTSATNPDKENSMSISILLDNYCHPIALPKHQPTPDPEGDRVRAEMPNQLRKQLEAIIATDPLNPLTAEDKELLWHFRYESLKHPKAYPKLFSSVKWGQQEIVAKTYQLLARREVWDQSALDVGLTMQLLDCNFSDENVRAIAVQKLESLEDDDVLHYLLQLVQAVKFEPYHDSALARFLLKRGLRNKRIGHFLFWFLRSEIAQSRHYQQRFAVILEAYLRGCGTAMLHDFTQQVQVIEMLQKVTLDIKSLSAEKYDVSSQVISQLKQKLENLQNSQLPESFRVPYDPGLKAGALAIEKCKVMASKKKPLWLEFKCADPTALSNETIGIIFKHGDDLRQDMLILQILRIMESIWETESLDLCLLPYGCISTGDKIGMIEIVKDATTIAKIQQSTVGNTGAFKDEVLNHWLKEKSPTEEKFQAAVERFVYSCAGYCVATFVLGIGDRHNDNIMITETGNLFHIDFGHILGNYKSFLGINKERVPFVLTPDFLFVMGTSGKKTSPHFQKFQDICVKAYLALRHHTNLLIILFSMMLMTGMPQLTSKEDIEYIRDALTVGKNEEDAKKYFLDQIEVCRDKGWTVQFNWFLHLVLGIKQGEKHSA
# Sequence of PI3K α (P42336 whole entry): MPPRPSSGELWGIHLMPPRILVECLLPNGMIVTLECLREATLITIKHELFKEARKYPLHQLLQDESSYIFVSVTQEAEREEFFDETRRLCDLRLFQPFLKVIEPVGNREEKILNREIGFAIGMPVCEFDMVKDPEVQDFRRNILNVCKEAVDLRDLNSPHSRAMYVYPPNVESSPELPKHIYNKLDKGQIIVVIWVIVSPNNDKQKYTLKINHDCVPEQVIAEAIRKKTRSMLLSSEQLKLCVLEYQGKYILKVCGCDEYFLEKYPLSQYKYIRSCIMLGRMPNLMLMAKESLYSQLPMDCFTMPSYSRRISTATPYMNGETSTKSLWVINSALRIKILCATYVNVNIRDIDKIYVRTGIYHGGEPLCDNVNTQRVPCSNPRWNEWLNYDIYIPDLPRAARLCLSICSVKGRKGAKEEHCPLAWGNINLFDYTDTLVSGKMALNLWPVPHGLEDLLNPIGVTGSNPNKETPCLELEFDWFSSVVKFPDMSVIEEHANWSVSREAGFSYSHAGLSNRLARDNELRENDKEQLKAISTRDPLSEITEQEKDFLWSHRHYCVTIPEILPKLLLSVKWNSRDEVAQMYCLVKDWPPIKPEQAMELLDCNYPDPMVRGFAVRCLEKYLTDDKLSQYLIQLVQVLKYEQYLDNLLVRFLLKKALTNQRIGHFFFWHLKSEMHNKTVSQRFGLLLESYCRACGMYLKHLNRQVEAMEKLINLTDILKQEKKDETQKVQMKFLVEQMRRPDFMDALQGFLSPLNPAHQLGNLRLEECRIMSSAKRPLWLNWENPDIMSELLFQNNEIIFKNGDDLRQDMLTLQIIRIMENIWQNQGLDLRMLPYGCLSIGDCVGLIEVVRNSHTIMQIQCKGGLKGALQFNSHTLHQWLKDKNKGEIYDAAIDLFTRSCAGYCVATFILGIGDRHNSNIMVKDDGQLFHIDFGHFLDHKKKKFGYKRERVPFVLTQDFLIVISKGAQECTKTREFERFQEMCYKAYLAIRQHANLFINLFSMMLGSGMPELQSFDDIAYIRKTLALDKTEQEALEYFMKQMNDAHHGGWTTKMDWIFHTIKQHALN
# Sequence of PI3K α (P27986 whole entry partner): as the sequence (P27986 whole entry partner) above
Compound,IC50 (PI3K γ) [nM],IC50 (PI3K β) [nM],IC50 (PI3K δ) [nM],further results
Nc1nc2cc(-c3ccc4nccc(-c5ccncc5)c4c3)ccc2o1 [Compound 1],–,–,–,IC50 (PC3): < 1000 nM; IC50 (T47D): < 1000 nM
Nc1nc2cc(-c3ccc4ncc(N[C@H]5CC[C@H](O)CC5)nc4c3)ccc2o1 [Compound 128],< 100,< 10000,< 100,IC50 (PI3K α): < 100 nM
Nc1nc2cc(-c3ccc4ncc(N5CCNC(=O)C5)nc4c3)ccc2o1 [Compound 135],–,< 100,< 10000,–
CN1CCC(N(C)c2ncnc3ccc(-c4ccc5oc(N)nc5c4)cc23)CC1 [Compound 155],< 1000,–,–,–
CC1CN(C(=O)c2cnc3ccc(-c4ccc5oc(N)nc5c4)cn23)CCN1 (centres unmarked) [Compound 164],–,–,–,IC50 (T47D): < 1000 nM
Nc1nc2cc(-c3ccc4ncc(N5CCC(N)CC5)nc4c3)ccc2o1 [Compound 168],< 10000,–,–,–
CN1CCC(NC(=O)c2cnc3ccc(-c4ccc5oc(N)nc5c4)cn23)CC1 [Compound 203],< 100,< 100,< 1000,–
CC(C)[C@H](N)C(=O)N1CCN(c2cnc3ccc(-c4ccc5oc(N)nc5c4)cc3n2)CC1 [Compound 269],< 10000,–,–,–
CC(C)[C@@H](N)C(=O)N1CCN(c2cnc3ccc(-c4ccc5oc(N)nc5c4)cc3n2)CC1 [Compound 270],< 1000,–,–,–
CN1CCN(CCNC(=O)c2cnc3ccc(-c4ccc5oc(N)nc5c4)cn23)CC1 [Compound 306],< 1000,–,–,–
C[C@H]1CN(c2cnc3ccc(-c4ccc5oc(N)nc5c4)cc3n2)CCN1C [Compound 332],< 1000,–,–,–
Nc1nc2cc(-c3ccn4ncc(C(=O)N5CCOCC5)c4c3)cc(Cl)c2o1 [Compound 359],< 100,< 1000,< 10000,IC50 (PI3K α): < 100 nM
Nc1nc2cc(-c3ccc4ncc(N5CC[C@H](N6CCOCC6)C5)nc4c3)ccc2o1 [Compound 375],< 100,–,< 10000,–
CN1CCN([C@@H]2CCN(c3cnc4ccc(-c5ccc6oc(N)nc6c5)cc4n3)C2)CC1 [Compound 379],–,–,–,IC50 (mTOR): > 10000 nM
O=C(c1cnc2ccc(-c3ccc(Cl)c(NS(=O)(=O)c4ccc(F)cc4F)c3)cn12)N1CCOCC1 [Compound 461],< 1000,–,–,–
Nc1nc2cc(-c3ccc4ncc(C(=O)N5CC(N6CC[C@@H](O)C6)C5)n4c3)ccc2o1 [Compound 470],< 100,> 10000,> 10000,–
Nc1nc2cc(-c3ccc4ncc(C(=O)N5CC[C@H](F)C5)n4c3)ccc2o1 [Compound 476],< 1000,–,< 10000,–
Nc1nc2cc(-c3ccc4ncc(C(=O)N5CC[C@H](n6cccn6)C5)n4c3)ccc2o1 [Compound 478],–,–,–,PI3K δ IC50 (nM) (PI3K δ): +++ +++
O=C(c1cnc2ccc(-c3ccc4c(Nc5ccccc5)noc4c3)cn12)N1CCOCC1 [Compound 509],< 10000,< 10000,< 1000,"IC50 (MDA-MB-361; PC-3, read-out: PC3 proliferation (nM)*): < 10000 nM; IC50 (PI3K α): < 100 nM"
[2H]c1c(-c2ccc3ncc(C(=O)N4CCOCC4)n3c2)c([2H])c2nc(N)oc2c1[2H] [Compound 531],< 100,–,–,–
CN1CCN(c2cnc3ccc(-c4ccc5nc(N)oc5c4)cn23)CC1 [Compound 542],> 10000,> 10000,> 10000,IC50 (PI3K α): > 10000 nM
Nc1nc2cc(-c3ccc4ncc(-c5cccnc5)nc4n3)ccc2o1 [Compound 567],< 100,–,< 10000,"IC50 (MDA-MB-361; MDA-MB-361 cells, Table 4, read-out: MDA-MB-361 proliferation (nM)*): > 10000 nM; IC50 (PI3K α): < 100 nM"
Nc1nc2cc(-c3ccc4ncc(N5CC(N6CCOCC6)C5)nc4n3)ccc2o1 [Compound 604],< 1000,< 10000,–,"IC50 (mTOR; Table 4, PI3K α inhibitors): > 10000 nM"
"CS(=O)(=O)N1CCN(Cc2cc3nc(-c4cccc5[nH]ncc45)nc(N4CCOCC4)c3s2)CC1 [Pan-PI3K inhibitor, GDC0941, reference compound]",–,–,–,"B cell function in vivo (antibody production, percentage of vehicle control) (B cell function): blocks B cell function; tumor weight in breast cancer model (FIG. 9 left panel) [1]: reduction in tumor weight; B cell function in vivo, antibody production after TNP-Ficoll (FIG. 8) [2]: blocks B cell function in vivo; presence (localization/viability) of marginal zone B cells in mouse spleen (FIG. 9 right panel) (marginal zone B cells): reduced presence of MZB cells"

# Source: US20160089371A1, “Combination of Kinase Inhibitors and Uses Thereof” (INTELLIKINE, LLC, priority 2013, published 2016)
